Data from patent publication US9012651B2, “TRPV3 modulators” (AbbVie Inc., priority 2011, dated 2015).
pIC50: −log10 of the molar value.

The compounds below were run against human TRPV3 receptors (Homo sapiens (Human), UniProt Q8NET8) (assay: Calcium flux assay (FLIPR TETRA), inhibition of the 2-APB response). Conditions: recombinant HEK293 cells stably expressing TRPV3, Calcium-4 dye, 2-APB at its EC80.
Assay type: cell-based
In short: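 HEK293 cells stably expressing human and mouse TRPV3, plated the day before and dye-loaded 90-120 min in the dark, read on FLIPR Tetra. Peak fluorescence increase over baseline was expressed as percent of the maximal 2-APB response without compound.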

Sequence of human TRPV3 receptors (Q8NET8 whole entry): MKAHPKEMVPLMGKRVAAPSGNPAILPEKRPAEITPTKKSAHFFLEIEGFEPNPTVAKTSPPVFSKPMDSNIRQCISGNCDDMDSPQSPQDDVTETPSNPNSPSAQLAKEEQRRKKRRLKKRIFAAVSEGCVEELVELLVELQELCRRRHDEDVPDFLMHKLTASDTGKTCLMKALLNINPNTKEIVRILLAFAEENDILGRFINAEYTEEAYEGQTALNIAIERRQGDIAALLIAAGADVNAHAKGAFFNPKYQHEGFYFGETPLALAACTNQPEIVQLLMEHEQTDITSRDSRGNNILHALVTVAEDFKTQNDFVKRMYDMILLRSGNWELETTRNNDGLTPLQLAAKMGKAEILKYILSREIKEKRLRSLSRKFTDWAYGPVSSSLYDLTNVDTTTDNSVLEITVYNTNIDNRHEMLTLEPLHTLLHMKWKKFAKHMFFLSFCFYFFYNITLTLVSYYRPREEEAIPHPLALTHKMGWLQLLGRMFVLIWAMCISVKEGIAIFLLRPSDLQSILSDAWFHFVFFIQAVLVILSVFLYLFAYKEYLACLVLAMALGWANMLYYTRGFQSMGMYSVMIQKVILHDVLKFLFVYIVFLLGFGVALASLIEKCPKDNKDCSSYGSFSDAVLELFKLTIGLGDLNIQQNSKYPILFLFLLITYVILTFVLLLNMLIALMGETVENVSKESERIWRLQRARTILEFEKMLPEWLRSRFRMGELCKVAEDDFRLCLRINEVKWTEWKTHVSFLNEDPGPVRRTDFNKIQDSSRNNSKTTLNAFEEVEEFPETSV

Row | Compound | pIC50
1 | {1-[({2-[5-(trifluoromethyl)pyridin-2-yl]pyrimidin-4-yl}methyl)amino]cyclohexyl}methanol [Example 193] | < 4.70
2 | CC(C)[C@H](CO)NCc1nc(-c2cc(C(F)(F)F)nn2C)ccc1F [Example 291, (2R)-2-[({3-fluoro-6-[1-methyl-3-(trifluoromethyl)-1H-pyrazol-5-yl]pyridin-2-yl}methyl)amino]-3-methylbutan-1-ol] | 6.10
3 | CC(C)[C@H](CO)NCc1nc(N2CCc3c(cccc3C(F)(F)F)C2)ccc1F [Example 102, (2R)-2-[({3-fluoro-6-[5-(trifluoromethyl)-3,4-dihydroisoquinolin-2(1H)-yl]-pyridin-2-yl}methyl)amino]-3-methylbutan-1-ol] | 6.46
4 | CC(C)[C@H](CO)NCc1cccc(OC(C)(C)C)n1 [Example 26] | 5.39
5 | CC(C)[C@H](CO)NCc1nc(-c2cccc(C(=O)N(C)C3CCCCC3)c2)ccc1F [Example 52, N-cyclohexyl-3-[5-fluoro-6-({[(2R)-1-hydroxy-3-methylbutan-2-yl]amino}methyl)pyridin-2-yl]-N-methylbenzamide] | 5.85
6 | CC(C)[C@H](CO)NCc1nc(N2CCc3cc(Cl)ccc3C2)ccc1F [Example 101, (2R)-2-({[6-(6-chloro-3,4-dihydroisoquinolin-2(1H)-yl)-3-fluoropyridin-2-yl]methyl}amino)-3-methylbutan-1-ol] | 6.30
7 | CC(C)Oc1ccc(F)c(-c2ccc(F)c(CN[C@@H](CO)C(C)C)n2)c1 [Example 23, (2R)-2-[({3-fluoro-6-[2-fluoro-5-(propan-2-yloxy)phenyl]pyridin-2-yl}methyl)amino]-3-methylbutan-1-ol] | 6.15
8 | CC(C)[C@H](CO)NCc1nccc(-c2ccc(F)cc2)n1 [Example 32, (2R)-2-({[4-(4-fluorophenyl)pyrimidin-2-yl]methyl}amino)-3-methylbutan-1-ol] | 4.92
9 | CC(C)[C@H](CO)NCc1nc(C#CC2CCCCC2)ccc1F [Example 240, (2R)-2-({[6-(cyclohexylethynyl)-3-fluoropyridin-2-yl]methyl}amino)-3-methylbutan-1-ol] | 6.29
10 | CC(C)[C@H](CO)NCc1nc(-c2cnc(C(F)(F)F)nc2)ccc1F [Example 113, (2R)-2-[({3-fluoro-6-[2-(trifluoromethyl)pyrimidin-5-yl]pyridin-2-yl}methyl)amino]-3-methylbutan-1-ol] | 5.58
11 | CC(C)[C@H](CO)NCc1nc(-c2cccc(OC(F)(F)F)c2)ccc1F [Example 18, (2R)-2-[({3-fluoro-6-[3-(trifluoromethoxy)phenyl]pyridin-2-yl}methyl)amino]-3-methylbutan-1-ol] | 5.95
12 | CC(C)[C@H](CO)NCc1nc(-c2ccc(F)c(C#N)c2)ccc1F [Example 279, 2-fluoro-5-[5-fluoro-6-({[(2R)-1-hydroxy-3-methylbutan-2-yl]amino}methyl)pyridin-2-yl]benzonitrile] | 6.03
13 | CC(C)[C@H](CO)NCc1nc(-c2ccc3occc3c2)ccc1F [Example 256, (2R)-2-({[6-(1-benzofuran-5-yl)-3-fluoropyridin-2-yl]methyl}amino)-3-methylbutan-1-ol] | 6.38
14 | CC(C)[C@H](CO)NCc1nc(-c2ccoc2)ccc1F [Example 251, (2R)-2-({[3-fluoro-6-(furan-3-yl)pyridin-2-yl]methyl}amino)-3-methylbutan-1-ol] | 6.24
15 | CC(C)[C@H](CO)NCc1nc(N2Cc3ccc(C(F)(F)F)cc3C2)ccc1F [Example 96, (2R)-2-[({3-fluoro-6-[5-(trifluoromethyl)-1,3-dihydro-2H-isoindol-2-yl]pyridin-2-yl}methyl)amino]-3-methylbutan-1-ol] | 6.48
16 | CC(C)[C@H](CO)NCc1cccc(-c2cccc([Si](C)(C)C)c2)n1 [Example 226, (2R)-3-methyl-2-[({6-[3-(trimethylsilyl)phenyl]pyridin-2-yl}methyl)amino]butan-1-ol] | 6.22
17 | CCCN(CCC)C(=O)c1ccc(-c2ccc(F)c(CN[C@@H](CO)C(C)C)n2)cc1 [Example 277, 4-[5-fluoro-6-({[(2R)-1-hydroxy-3-methylbutan-2-yl]amino}methyl)pyridin-2-yl]-N,N-dipropylbenzamide] | 6.19
18 | CC(C)[C@H](CO)NCc1nc(-c2cccc(S(=O)(=O)N3CCOCC3)c2)ccc1F [Example 54, (2R)-2-[({3-fluoro-6-[3-(morpholin-4-ylsulfonyl)phenyl]pyridin-2-yl}methyl)amino]-3-methylbutan-1-ol] | 6.12
19 | CC(C)[C@H](CO)NCc1cccc(C#Cc2ccc(Cl)cc2)n1 [Example 286, (2R)-2-[({6-[(4-chlorophenyl)ethynyl]pyridin-2-yl}methyl)amino]-3-methylbutan-1-ol] | 6.28
20 | CC(C)[C@H](CO)NCc1nc(-c2cncc(C(F)(F)F)c2)ccc1F [Example 292, (2R)-2-({[5-fluoro-5′-(trifluoromethyl)-2,3′-bipyridin-6-yl]methyl}amino)-3-methylbutan-1-ol] | 6.55
21 | OCC1(NCc2cccc(-c3ccc(F)c(C(F)(F)F)c3)n2)CCCC1 [Example 268, {1-[({6-[4-fluoro-3-(trifluoromethyl)phenyl]pyridin-2-yl}methyl)amino]cyclopentyl}methanol] | 6.38
22 | CC(C)[C@H](CO)NCc1nc(-c2cccc(S(=O)(=O)N3CCCCC3)c2)ccc1F [Example 48, (2R)-2-[({3-fluoro-6-[3-(piperidin-1-ylsulfonyl)phenyl]pyridin-2-yl}methyl)amino]-3-methylbutan-1-ol] | 6.48
23 | CC(C)[C@H](CO)NCc1cccc(-c2ccc([Si](C)(C)C(C)(C)C)s2)n1 [Example 227, (2R)-2-{[(6-{5-[tert-butyl(dimethyl)silyl]thiophen-2-yl}pyridin-2-yl)methyl]amino}-3-methylbutan-1-ol] | 5.74
24 | CC(C)[C@H](CO)NCc1nc(-c2cc3ccccc3n2C(=O)OC(C)(C)C)ccc1F [Example 273, tert-butyl 2-[5-fluoro-6-({[(2R)-1-hydroxy-3-methylbutan-2-yl]amino}methyl)pyridin-2-yl]-1H-indole-1-carboxylate] | 6.92

The next lines start with the values.

Row | pIC50 | Compound
25 | 6.27 | CC[C@H](CO)NCc1nc(-c2ccc(C(F)(F)F)cc2)ccc1F [Example 77, (2R)-2-[({3-fluoro-6-[4-(trifluoromethyl)phenyl]pyridin-2-yl}methyl)amino]butan-1-ol]
26 | < 4.70 | CC(C)(CO)CNCc1ccnc(-c2ccc(C(F)(F)F)cc2)n1 [Example 156, 2,2-dimethyl-3-[({2-[4-(trifluoromethyl)phenyl]pyrimidin-4-yl}methyl)amino]propan-1-ol]
27 | < 4.70 | C[C@H](O)[C@H](CO)NCc1ccnc(-c2ccc(C(F)(F)F)cc2)n1 [Example 149, (2S,3S)-2-[({2-[4-(trifluoromethyl)phenyl]pyrimidin-4-yl}methyl)amino]butane-1,3-diol]
28 | < 4.70 | C[C@@H](O)[C@@H](CO)NCc1ccnc(-c2ccc(C(F)(F)F)cn2)n1 [Example 198, (2R,3R)-2-[({2-[5-(trifluoromethyl)pyridin-2-yl]pyrimidin-4-yl}methyl)amino]butane-1,3-diol]
29 | 4.75 | OCC1(CNCc2ccnc(-c3ccc(C(F)(F)F)cc3)n2)CCCCC1 [Example 159, (1-{[({2-[4-(trifluoromethyl)phenyl]pyrimidin-4-yl}methyl)amino]methyl}cyclohexyl)methanol]
30 | < 4.70 | OCC1(NCc2ccnc(-c3ccc(C(F)(F)F)nc3)n2)CCCCC1 [Example 185, {1-[({2-[6-(trifluoromethyl)pyridin-3-yl]pyrimidin-4-yl}methyl)amino]cyclohexyl}methanol]
31 | 6.85 | CC(C)[C@H](CO)NCc1nc(-c2ccc(C(F)(F)F)cn2)ccc1F [Example 73, (2R)-2-({[5-fluoro-5′-(trifluoromethyl)-2,2′-bipyridin-6-yl]methyl}amino)-3-methylbutan-1-ol]
32 | < 4.70 | C[C@@H](O)CNCc1ccnc(-c2ccc(C(F)(F)F)cc2)n1 [Example 183, (2R)-1-[({2-[4-(trifluoromethyl)phenyl]pyrimidin-4-yl}methyl)amino]propan-2-ol]
33 | < 4.70 | CC(C)[C@@H](CO)NCc1ccnc(-c2ccc(C(F)(F)F)cc2)n1 [Example 155, (2S)-3-methyl-2-[({2-[4-(trifluoromethyl)phenyl]pyrimidin-4-yl}methyl)amino]butan-1-ol]
34 | < 4.70 | OC(CNCc1ccnc(-c2ccc(C(F)(F)F)cc2)n1)c1ccccc1 (stereo not shown) [Example 182, 1-phenyl-2-[({2-[4-(trifluoromethyl)phenyl]pyrimidin-4-yl}methyl)amino]ethanol]
35 | 4.91 | CCC(C)C(CO)NCc1ccnc(-c2ccc(C(F)(F)F)cc2)n1 (stereo not shown) [Example 143, 3-methyl-2-[({2-[4-(trifluoromethyl)phenyl]pyrimidin-4-yl}methyl)amino]pentan-1-ol]
36 | 5.52 | CC[C@H](CO)NCc1ccnc(-c2ccc(C(F)(F)F)cc2)n1 [Example 138, (2R)-2-[({2-[4-(trifluoromethyl)phenyl]pyrimidin-4-yl}methyl)amino]butan-1-ol]
37 | 6.29 | CC[C@@H](NCc1nc(-c2ccc(C(F)(F)F)nc2)ccc1F)C(C)O (stereo partly drawn) [Example 115, (3R)-3-({[5-fluoro-6′-(trifluoromethyl)-2,3′-bipyridin-6-yl]methyl}amino)pentan-2-ol]
38 | 5.19 | CC(C)(C)[C@H](CO)NCc1ccnc(-c2ccc(C(F)(F)F)cc2)n1 [Example 147, (2R)-3,3-dimethyl-2-[({2-[4-(trifluoromethyl)phenyl]pyrimidin-4-yl}methyl)amino]butan-1-ol]
39 | 6.34 | CC(C)[C@H](CO)NCc1nc(-c2ccc(C(F)(F)F)cc2)ncc1F [Example 131, (2R)-2-[({5-fluoro-2-[4-(trifluoromethyl)phenyl]pyrimidin-4-yl}methyl)amino]-3-methylbutan-1-ol]
40 | < 4.70 | CC(C)[C@@H](CO)NCc1nc(-c2ccc(C(F)(F)F)cc2)ccc1F [Example 30, (2S)-2-[({3-fluoro-6-[4-(trifluoromethyl)phenyl]pyridin-2-yl}methyl)amino]-3-methylbutan-1-ol]
